Data on 1 compound can be found in article PMC8795149, “Characterization of a novel non-steroidal glucocorticoid receptor agonist optimized for topical treatment” (Scientific Reports, 2022).

In the assay the target is T1, recombinant human full-length GR (Homo sapiens, UniProt P04150).
T1 construct: 4 nM recombinant human full-length GR (Thermo Fisher); purchased Thermo Fisher
T1 sequence (P04150 1-777): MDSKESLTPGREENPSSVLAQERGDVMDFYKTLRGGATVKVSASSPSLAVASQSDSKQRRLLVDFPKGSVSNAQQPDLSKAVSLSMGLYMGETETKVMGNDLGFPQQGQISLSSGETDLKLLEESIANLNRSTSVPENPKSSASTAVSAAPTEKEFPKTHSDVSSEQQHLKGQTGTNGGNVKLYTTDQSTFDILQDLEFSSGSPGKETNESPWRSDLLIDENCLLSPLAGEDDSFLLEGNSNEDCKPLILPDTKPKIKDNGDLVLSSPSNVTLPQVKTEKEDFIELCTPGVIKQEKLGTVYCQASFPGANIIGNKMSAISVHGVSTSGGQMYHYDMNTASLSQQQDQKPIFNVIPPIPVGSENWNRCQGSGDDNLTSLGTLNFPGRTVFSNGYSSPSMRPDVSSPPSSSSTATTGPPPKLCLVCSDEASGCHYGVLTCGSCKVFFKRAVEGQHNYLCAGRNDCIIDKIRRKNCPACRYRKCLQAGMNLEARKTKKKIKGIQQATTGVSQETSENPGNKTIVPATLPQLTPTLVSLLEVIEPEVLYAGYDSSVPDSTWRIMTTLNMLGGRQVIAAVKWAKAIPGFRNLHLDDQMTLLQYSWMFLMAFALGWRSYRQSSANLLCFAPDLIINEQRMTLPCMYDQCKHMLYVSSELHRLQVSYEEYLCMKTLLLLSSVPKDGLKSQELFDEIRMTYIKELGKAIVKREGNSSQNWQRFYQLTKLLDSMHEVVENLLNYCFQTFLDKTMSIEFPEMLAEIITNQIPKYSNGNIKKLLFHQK
The assay can be described thus: GR binding assay (fluorescence polarization). As to conditions: Fluormone GS1. As to the method: Binding of GR agonists to human GR was evaluated in a fluorescence polarization assay. 2.5 nM Fluormone GS1 (Thermo Fisher) and 4 nM recombinant human full-length GR (Thermo Fisher) were incubated in the presence of individual test and control compounds. Changes in polarization values were used to determine the relative affinity of test compounds for the GR.
(In general: Polarisation of emitted light reports the rotation of a fluorescent probe.)

As usually defined, the EC50 is the concentration needed to bring the measured effect to its halfway point. For `C[C@H](NC(=O)[C@H]1CCCO1)[C@H](Oc1ccc(C(=O)O[C@H]2CCCN(C(=O)[C@H]3COC(=O)C3)C2)cc1)c1ccc(C2CC2)cc1` [LEO 134310], the EC50 came to 14 nM.
